Test system: rat H9C2 cells
Assay: trypan-blue cell viability assay
Assay type: cell-based
Conditions: 1 μM and 5 μM, 7 days, vs control-untreated cells
Procedure: Two different cardiac cell lines, rat H9C2 cells and mouse HL-1 cells, and two different assays, trypan-blue cell viability assay and calcium dye fluorescent based assay, were used to determine the cytotoxicity of prepared alginate-αCGRP microcapsules.
Trypan-blue cell viability assay: Rat cardiac myoblast cell line, H9C2 cells, was cultured in complete culture medium containing Dulbecco's Modified Eagles' Medium (DMEM) supplemented with 10% fetal bovine serum (FBS), 4.5 gm/liter D-glucose, 1.5 gm/liter sodium bicarbonate, and antibiotic solution of 100 unit/ml penicillin and 100 μg/ml streptomycin. […] The viability of H9C2 cells in presence or absence of alginate-αCGRP microcapsules was determined by trypan blue assay. […] After 7 days of treatment, cells were trypsinized and counted by hemocytometer using trypan-blue exclusion method (Sigma) according to manufacturer's instructions. […]
Trypan-blue cell viability assay: The rat cardiac H9C2 cells were grown at 37° C. in a humidified incubator with 5% CO2 in complete culture medium (containing DMEM supplemented with 10% fetal bovine serum, FBS, 4.5 gm/liter D-glucose, and 1× penicillin/streptomycin). The viability of H9C2 cells in presence of alginate-α-CGRP microcapsules was determined by trypan-blue assay (Sigma). […] After 7 days of treatment, cells were trypsinized and counted by hemocytometer using trypan-blue exclusion method.

How did the “viability of H9C2 cells (live cells, trypan blue)” value turn out when `CC(C)C[C@H](NC(=O)CNC(=O)[C@H](C)NC(=O)[C@H](CC(C)C)NC(=O)[C@H](CCCNC(=N)N)NC(=O)[C@H](Cc1c[nH]cn1)NC(=O)[C@@H](NC(=O)[C@@H](NC(=O)[C@@H]1CSSC[C@H](NC(=O)[C@@H](N)CO)C(=O)N[C@@H](CC(N)=O)C(=O)N[C@@H]([C@@H](C)O)C(=O)N[C@@H](C)C(=O)N[C@@H]([C@@H](C)O)C(=O)N1)C(C)C)[C@@H](C)O)C(=O)N[C@@H](CC(C)C)C(=O)N[C@@H](CO)C(=O)N[C@@H](CCCNC(=N)N)C(=O)N[C@@H](CO)C(=O)NCC(=O)NCC(=O)N[C@H](C(=O)N[C@H](C(=O)N[C@@H](CCCCN)C(=O)N[C@@H](CC(=O)O)C(=O)N[C@@H](CC(N)=O)C(=O)N[C@@H](Cc1ccccc1)C(=O)N[C@H](C(=O)N1CCC[C@H]1C(=O)N[C@H](C(=O)N[C@@H](CC(N)=O)C(=O)N[C@H](C(=O)NCC(=O)N[C@@H](CO)C(=O)N[C@@H](CCC(=O)O)C(=O)N[C@@H](C)C(=O)N[C@@H](Cc1ccccc1)C(N)=O)C(C)C)[C@@H](C)O)C(C)C)C(C)C)C(C)C` [α-CGRP-alone] was run?
The value was “not significantly different”.
